Test results: patent publication US6124308A, “Optically active phenyl pyrimidine derivatives as analgesic agent” (priority 1995, dated 2000)
Structures can show the parent of a compound that is named as a salt. Where two headings read alike, the source gives them in different places.

Columns and labels:
[1] = Melting profile / stability of salts (Mettler hotstage and DSC); format: physicochemical; conditions: for Hotstage/DSC results indicates (racemisation on heating) / temperature of racemisation indicated by hotstage/DSC: 10° C./min
Protocol: Events on heating were monitored visually using a Mettler hotstage and a microscope. A DSC scan was then used to confirm the observed events and identify the type of event. The DSC experiments were performed using the Perkin Elmer DSC-7 system with a TAC7/DX recorder. In order to capture as many events as possible a scan irate of 10° C./min and 1-2 mg sample size was used. DSC sweeps between 40° C. and 400° C. or from and to 50° C. outside any event observed on the hot stage were carried out on one or two samples. The samples and reference (air) were placed in 50 μl aluminium pans with holes.

[2] = Solubility of salts in water and pH (drug addition method); format: physicochemical; conditions: water, room temperature
Protocol: The solubility was determined by means of the drug addition method. At room temperature the drug was added to 0.25 ml deionised water. The sample was diluted to 2 ml for pH determination. A single determination was carried out.

[3] = tested on: hind-limb extension (maximal electroshock seizure); experiment: Maximal electroshock test, rats, i.p., duration of action; format: in vivo, rat; conditions: for ED50 (95% limits): i.p., rats
[4] = tested on: maximal electroshock seizure; experiment: Maximal electroshock test, rats, i.v., stronger current (200 mA); format: in vivo; conditions: Rattus norvegicus, iv, 1 h
Excerpt: A stronger current (200 mA) was used compared with that (20 mA) used in the other procedures.

[5] = tested on: striatal dopamine in MPTP injected C57B1/6 mice; experiment: MPTP induced neurotoxic model, striatal dopamine levels; format: in vivo, mouse
Protocol: Six-week old male C57B1/6 mice (Japan SLC Co., Hamamatu) were housed ten per case in a temperature-controlled room under a 12-hours light/12-hours dark cycle with free access to food and water.
Mice received i.p. injections of the R(-) enantiomer and the S(+) enantiomer (30 mg/kg) in olive oil starting 12 hours before MPTP injection and every 12 hours for the next 5-injections. Control mice received olive oil only.
Mice receive s.c. injection of MPTP-HCl (40 mg of free base per kg; Research Biochemicals) in saline. Control mice received saline only.
HPLC with electrochemical detection was used to measure striatal levels of dopamine (J.C. Garcia': Journal of Chromatography B. 656 (1994) 77-80).
Seven days after the MPTP injection, mice ([…]) were killed and striata were dissected out, immediately frozen, and stored at -80° C. until analysis. On the day of the assay, tissue samples were sonicated in 10 vol(wt/vol) of 0.1M perchloric acid /1.9 mM sodium hydrogen sulfite containing 1.6μg/ml 3,4-dihydroxybenzylamine hydrobromide(Sigma) as an internal standard. After centrifugation (2,800× g for 10 min at room temperature) and filtration (0.5 μm; Millipore membrane filter), 10 μl of supernatant was injected onto an Inertsil ODS3 column (4.6×250 mm; GL Science, Tokyo). The mobile phase consisted of 88% 115 mM NaH2 PO4 /0.178 mM Na2 EDTA /0.92 mM 1-octanesulfonic acid (pH=2.6) solution and 12% ethanol. F low rate was 1.0 ml/min. Peaks were detected by a Shimazu electrochemical detector LECD-6A(700 mV).

[6] = tested on: veratrine-evoked glutamate release from rat brain slices; experiment: Inhibition of veratrine-evoked glutamate release; format: cell-based; conditions: at 10 μM
Half-life in male rats = format: in vivo, rat
[7] = tested on: PGE2-induced acute hyperalgesia; experiment: Effects on the development of PGE2-induced acute hyperalgesia (paw pressure); format: in vivo, rat; conditions: p.o., 1 h before PGE2 (100 ng), n=5
Protocol: Effects on the development of PGE2 -induced acute hyperalgesia
Reaction times to paw pressure were measured 3 h after PGE2 injection. Ataxia was scored at the same time by observation of the rats placed in an arena.

rat liver DHFR = molecular target: T1, rat liver DHFR (Rattus norvegicus, UniProt Q920D2); experiment: Activity against dihydrofolate reductase (DHFR), spectrophotometric assay; format: biochemical; conditions: at 100 μM
T1 construct: rat liver DHFR; from tissue; host or cells: rat liver
T1 sequence (Q920D2 1-187): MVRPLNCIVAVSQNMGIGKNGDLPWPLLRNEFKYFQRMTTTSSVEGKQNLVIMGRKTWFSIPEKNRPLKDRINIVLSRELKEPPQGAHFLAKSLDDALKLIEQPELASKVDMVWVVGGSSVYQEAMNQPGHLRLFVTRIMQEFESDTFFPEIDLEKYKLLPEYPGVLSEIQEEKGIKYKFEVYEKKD

[8] = tested on: whole-cell sodium currents in cultured rat hippocampal neurones; experiment: Whole-cell sodium currents in cultured embryonic rat hippocampal neurones, patch-clamp; format: cell-based
Excerpt: (b) Cultured embryonic rat hippocampal neurones
Sodium currents were elicited by the application of 20 msec dipolarisng pulses, thereby lowering membrane potential to -10 mV from a holding potential of -60 mV.

SMILES | Hotstage/DSC results indicates (racemisation on heating) [1] | temperature of racemisation indicated by hotstage/DSC [1] | pH of the solution [2] | stability profile suggested by the tests [1] | further results
Nc1nc(N)c(-c2cccc(Cl)c2Cl)c(CF)n1 [(L)-Lactate] | Racemisation | 143 °C | 3.43 |  | solubility of four salts [2]: less than 1 mg/ml
Nc1nc(N)c(-c2cccc(Cl)c2Cl)c(CF)n1 [Acetate] | Racemisation | ~200 °C | 5.54 |  | solubility ([2]; read-out: solubility of four salts): < 1 mg/mL
Nc1nc(N)c(-c2cccc(Cl)c2Cl)c(CF)n1 [Benzenesulphonate] |  |  | 2.43 | could provide good stability | 
Nc1nc(N)c(-c2cccc(Cl)c2Cl)c(CF)n1 [Benzoate] | unstable |  | 4.17 |  | solubility of four salts [2]: less than 1 mg/ml
Nc1nc(N)c(-c2cccc(Cl)c2Cl)c(CF)n1 [Citrate] |  |  | 3.99 | could provide good stability | 
Nc1nc(N)c(-c2cccc(Cl)c2Cl)c(CF)n1 [Fumarate] | Racemisation | 127 °C | 3.04 |  | 
Nc1nc(N)c(-c2cccc(Cl)c2Cl)c(CF)n1 [HCl, R(-)-2,4-diamino-5-(2,3-dichlorophenyl)-6-fluoromethyl Pyrimidine Monohydrochloride] |  |  |  |  | Hotstage/DSC results indicates (racemisation on heating) ([1]; Monohydrochloride): Racemisation; temperature of racemisation indicated by hotstage/DSC ([1]; Monohydrochloride): 243 °C; pH of the solution ([2]; Monohydrochloride): 3.61; solubility ([2]; solubility of the equivalent base over or around 25 mg/ml): ~25 mg/mL
Nc1nc(N)c(-c2cccc(Cl)c2Cl)c(CF)n1 [Isethionate, R(-)-2,4-diamino-5-(2,3-dichlorophenyl)-6-fluoromethyl Pyrimidine Isethionate] |  |  | 1.67 |  | ED50 ([3]; Rattus norvegicus, ip, 2 h, read-out: ED50 at 2 hrs (isethionate salt versus base), i.p., 2 hrs, calculated as the base, p<0.05): 1.8 mg/kg; solubility of the equivalent base over or around 25 mg/ml [2]: around 25 mg/ml; ED50 [4]: 1.5 mg/kg
Nc1nc(N)c(-c2cccc(Cl)c2Cl)c(CF)n1 [Malonate] |  |  | 3.2 | could provide good stability | 
Nc1nc(N)c(-c2cccc(Cl)c2Cl)c(CF)n1 [Methanesulphonate, R(-)-2,4-diamino-5-(2,3-dichlorophenyl)-6-fluoromethyl Pyrimidine Methanesulphonate] | Racemisation | 240 °C | 3.33 | could provide good stability | solubility of the equivalent base over or around 25 mg/ml [2]: around 25 mg/ml
Nc1nc(N)c(-c2cccc(Cl)c2Cl)c(CF)n1 [Naphthalenedisulphonate] |  |  |  | could provide good stability | solubility of four salts [2]: less than 1 mg/ml
Nc1nc(N)c(-c2cccc(Cl)c2Cl)c(CF)n1 [Phosphate] |  |  | 2.34 | could provide good stability | solubility of the equivalent base over or around 25 mg/ml [2]: around 25 mg/ml
Nc1nc(N)c(-c2cccc(Cl)c2Cl)c(CF)n1 [S(+)enantiomer, S(+)-2,4-diamino-5-(2,3-dichlorophenyl)-6-fluoromethyl pyrimidine, reference compound] |  |  |  |  | % protection ([5]; 30 mg/kg i.p. 6 times, MPTP 40 mg/kg s.c.): 20.3%; Dopamine content in the striatum ([5]; 30 mg/kg i.p. 6 times, MPTP 40 mg/kg s.c., day 7): 7.99 ± 1.55 μg/g wet tissue; % mortality ([5]; 30 mg/kg i.p., day -1 to 7): 0%; inhibition of veratrine-evoked glutamate release [6]: 0%; half-life (t1/2) (Half-life in male rats): 3.1 h; ED50 (95% limits) ([3]; 0.5 hours, 30 min): 17.6 (11.6-26.4) mg/kg; ED50 (95% limits) ([3]; 1 hour, 60 min): 19.0 (12.7-28.5) mg/kg; ED50 (95% limits) ([3]; 2 hours, 120 min): 30.7 (20.9-45.3) mg/kg; ED50 (95% limits) ([3]; 4 hours, 240 min): 87.3 (47.7-168) mg/kg; Analgesia ED50 (95% limits) [7]: 50.1 (39.2-70.5) mg/kg; inhibition of rat liver DHFR (rat liver DHFR): 33%; IC50 ([8]; 20 msec pulses to -10 mV from holding potential -60 mV, read-out: IC50 (reduction of peak sodium current)): 20 µM; reduction of peak sodium current ([8]; holding potential -60 mV): concentration-dependent reduction of peak sodium current
Nc1nc(N)c(-c2cccc(Cl)c2Cl)c(CF)n1 [Succinate] | Racemisation | 81 °C | 4.09 |  | 
Nc1nc(N)c(-c2cccc(Cl)c2Cl)c(CF)n1 [Sulphate] | Racemisation | 194 °C | 1.92 | could provide good stability | solubility of the equivalent base over or around 25 mg/ml [2]: around 25 mg/ml
Nc1nc(N)c(-c2cccc(Cl)c2Cl)c(CF)n1 [Tartrate] |  |  | 3.48 | could provide good stability | 
Nc1nc(N)c(-c2cccc(Cl)c2Cl)c(CF)n1 [Toluenesulphonate] |  |  |  | could provide good stability | 
